Results as given in ChEMBL document CHEMBL1122711, “Design, synthesis, and testing of potential antisickling agents. 4. Structure-activity relationships of benzyloxy and phenoxy acids” (J Med Chem, 1984).

Key:
[1] = human, 5000 µM
Description: Solubility ratio ([HbS+drug (5 mM)]/[HbS-drug])

[2] = human, 10000 µM
[3] = human, 40000 µM
Description: Solubility ratio ([HbS+drug (40 mM)]/[HbS-drug])

[4] = human, 20000 µM
Description: Solubility ratio ([HbS+drug (20 mM)]/[HbS-drug]

| SMILES | Solubility ratio [1] | Solubility ratio [2] | Solubility ratio [3] | Solubility ratio [4] |
| --- | --- | --- | --- | --- |
| CN(C)c1ccc(OCC(=O)O)cc1.Cl | 1.022 | 1.044 | 1.057 | 1.011 |
| O=C(O)COCc1ccc(Cl)cc1 | 1.065 | 1.104 | 1.396 | 1.206 |
| O=C(O)COCc1ccc(Cl)cc1Cl | 1.079 | 1.13 | 1.246 | 1.295 |
| Cc1cc(C)c(C)c(OCC(=O)O)c1 | 1.035 | 1.086 | 1.351 | 1.18 |
| O=C(O)COCc1ccc(Oc2ccccc2)cc1 | 1.034 | 1.088 | 1.162 | 1.165 |
| O=C(O)COC(c1ccccc1)c1ccc(Cl)cc1 (stereo unspecified) | 1.002 | 1.032 | 1.25 | 1.103 |
| O=C(O)COCc1cc(Cl)cc(Cl)c1 | 1.076 | 1.149 | 1.382 | 1.33 |
| Cc1ccc(COCC(=O)O)cc1C | 1.06 | 1.086 | 1.289 | 1.142 |
| O=C(O)COc1ccc(Br)cc1 | 1.049 | 1.093 | 1.317 | 1.18 |
| O=C(O)CSc1cc(Cl)c(Cl)cc1Cl | 1.018 | 1.032 | 1.12 | 1.07 |
| Cc1ccc(OCC(=O)O)c(Br)c1 | 1.031 | 1.035 | 1.189 | 1.102 |
| O=C(O)COCc1ccc(Cl)c(Cl)c1 | 1.083 | 1.162 | 1.32 | 1.309 |
| Cc1ccc(COCC(=O)O)c(C)c1 | 1.05 | 1.054 | 1.325 | 1.163 |
| O=C(O)C(CCc1ccccc1)C(=O)O | 1.007 | 1.058 | 1.263 | 1.101 |
| O=C(O)COc1ccc(I)cc1 | 1.04 | 1.046 | 1.176 | 1.09 |
| O=C(O)COc1ccc([N+](=O)[O-])cc1 | 0.983 | 1.043 | 1.344 | 1.329 |
| O=C(O)CSCc1ccc(Br)cc1 | 1.024 | 1.053 | 1.307 | 1.131 |
| Cc1ccc(C)c(OCCCC(C)(C)C(=O)O)c1 [GEMFIBROZIL] | 1.04 | 1.073 | 1.234 | 1.117 |
| Cc1cc(OCC(=O)O)ccc1Cl | 1.05 | 1.08 | 1.275 | 1.171 |
| O=C(O)COCc1ccc(Br)cc1 | 1.059 | 1.118 | 1.398 | 1.233 |

| SMILES | Solubility ratio [1] | Solubility ratio [2] | Solubility ratio [3] | Solubility ratio [4] |
| --- | --- | --- | --- | --- |
| CSc1ccc(OCC(=O)O)cc1 | 1.035 | 1.027 | 1.223 | 1.16 |
| CC(C)(C)c1ccc(OCC(=O)O)cc1 | 1.004 | 1.012 |  | 1.058 |
| CC(C)(OCc1ccc(Br)cc1)C(=O)O | 1.048 | 1.086 | 1.379 | 1.193 |
| Nc1ccc(OCC(=O)O)cc1 | 1 | 1.01 | 1.145 | 1.113 |
| O=C(O)COc1cccc(Cl)c1Cl | 1.025 | 1.057 | 1.135 | 1.09 |
| O=C(O)C(CCOc1ccc(Br)cc1)C(=O)O | 1.057 | 1.134 | 1.36 | 1.323 |
| O=C(O)COc1c(Br)cc(Br)cc1Br | 1.018 | 1.077 | 1.248 | 1.145 |
| COc1cccc(OCC(=O)O)c1OC | 1.017 | 1.036 | 1.144 | 1.064 |
| O=C(O)COc1ccc(Cl)cc1 | 1.04 | 1.08 | 1.287 | 1.163 |
| O=C(O)COc1ccc2c(c1)CCC2 | 1.054 | 1.134 | 1.322 | 1.247 |
| Cc1ccc(C)c(OCC(=O)O)c1 | 1.031 | 1.055 | 1.248 | 1.114 |
| O=C(O)COc1ccc2c(c1)Cc1ccccc1-2 | 1.029 | 1.042 | 1.113 | 1.067 |
| N[C@@H](Cc1ccccc1)C(=O)O [PHENYLALANINE] | 1.036 | 1.048 | 1.178 | 1.093 |
| Nc1ccc(CSCC(=O)O)cc1 | 1.006 | 1.031 | 1.174 | 1.076 |
| COc1cc(OCC(=O)O)cc(OC)c1OC | 0.987 | 1.013 | 1.047 | 1.015 |
| Cc1ccc(OCC(=O)O)cc1C | 1.027 | 1.06 | 1.243 | 1.118 |
| COc1cc(COCC(=O)O)ccc1C | 1.034 | 1.081 | 1.248 | 1.145 |
| C=CCc1ccc(OCC(=O)O)c(OC)c1 | 1.033 | 1.043 | 1.245 | 1.141 |
| COc1ccc(COCC(=O)O)cc1 | 0.996 | 1.012 | 1.149 | 1.054 |
| Cc1ccc(COCC(=O)O)cc1 | 1.017 | 1.059 | 1.304 | 1.137 |

| SMILES | Solubility ratio [1] | Solubility ratio [2] | Solubility ratio [3] | Solubility ratio [4] |
| --- | --- | --- | --- | --- |
| Cc1cc(C)c(COCC(=O)O)c(C)c1 | 1.031 | 1.054 | 1.31 | 1.163 |
| Cc1cc(OCC(=O)O)cc(C)c1Br | 0.996 | 1.004 | 1.092 | 1.063 |
| O=C(O)CSc1ccc(Cl)cc1 | 1.026 | 1.069 | 1.296 | 1.168 |
| O=C(O)CSc1c(F)c(F)c(F)c(F)c1F | 1.025 | 1.053 | 1.236 | 1.117 |
| CC(C)(Oc1ccc(CCNC(=O)c2ccc(Cl)cc2)cc1)C(=O)O [BEZAFIBRATE] | 0.954 | 0.932 | 1.198 | 0.981 |
| COc1cc(Cl)ccc1COCC(=O)O | 1.062 | 1.121 | 1.311 | 1.233 |
| Cc1cc(OCC(=O)O)cc(C)c1Cl | 1.033 | 1.054 | 1.216 | 1.124 |
| CC(C)(Oc1ccc(Cl)cc1)C(=O)O [CLOFIBRIC ACID] | 1.018 | 1.064 | 1.302 | 1.155 |
| Cc1cc(C)cc(OCC(=O)O)c1 | 1.035 | 1.048 | 1.31 | 1.141 |
| COc1cc(OC)cc(OCC(=O)O)c1 | 1.03 | 1.052 | 1.232 | 1.12 |
| O=C(O)CCOCc1ccc(Cl)c(Cl)c1 | 1.062 | 1.142 | 1.395 | 1.305 |
| Cc1cc(C)cc(COCC(=O)O)c1 | 1.01 | 1.031 | 1.315 | 1.129 |
| O=C(O)COc1ccc2c(c1)oc1ccccc12 | 1.033 | 1.054 | 1.185 | 1.09 |
| O=C(O)COCc1ccc(I)cc1 | 1.039 | 1.09 | 1.35 | 1.236 |
| O=C(O)COc1ccc(Cl)cc1Cl [2,4-DICHLOROPHENOXYACETIC ACID] | 1.049 | 1.083 | 1.313 | 1.151 |
| O=C(O)CSc1ccc(Br)cc1 | 1.023 | 1.063 | 1.261 | 1.113 |
| O=C(O)COc1ccc(Cl)c(Cl)c1 | 1.061 | 1.117 | 1.339 | 1.234 |
| Cc1cc(Br)c(OCC(=O)O)c(Br)c1 | 1.077 | 1.043 | 1.284 | 1.139 |
